Data from publication PMC3961306, “Comparison of the Cancer Gene Targeting and Biochemical Selectivities of All Targeted Kinase Inhibitors Approved for Clinical Use” (PLoS ONE, 2014).
Like-named read-outs stand apart in the source and are kept apart here.

Test system: forty-four human cancer cell lines
Assay: Cell proliferation assay (ATPlite, 72 hours) in the 44 cell line Oncolines panel
Type: cell-based
Conditions: for IC50: Homo sapiens

In the case of CC(C)C[C@H](NC(=O)[C@H](Cc1ccccc1)NC(=O)c1cnccn1)B(O)O [bortezomib], the “Difference between the average IC50 in the cell panel and the most potent IC50” value (44 cell line panel, Figure 2D) is reported as 10 fold, the IC50 (769-P, cell line 769-P, read-out: cell panel IC50, 769-P) is reported as 18 nM and the IC50 (786-0, cell line 786-0, read-out: cell panel IC50, 786-0) is reported as 15 nM. The IC50 (A 172, read-out: cell panel IC50, A-172, cell line A-172) was 4.63 nM, the IC50 (A204, cell line A-204, read-out: cell panel IC50, A-204) was 2090 nM and the IC50 (A498, read-out: cell panel IC50, A-498, cell line A-498) was 6 nM. It also gave an IC50 (A549, read-out: cell panel IC50, A-549, cell line A-549) of 9 nM, an IC50 (A-375, cell line A375, read-out: cell panel IC50, A375) of 13 nM and an IC50 (A-427, read-out: cell panel IC50, A-427, cell line A-427) of 11 nM. It also gave an IC50 (ACHN, cell line ACHN, read-out: cell panel IC50, ACHN) of 10 nM, an IC50 (AN3-CA, cell line AN3 CA, read-out: cell panel IC50, AN3 CA) of 13 nM and an IC50 (AU565, read-out: cell panel IC50, AU-565, cell line AU-565) of 18 nM. For the same molecule, the IC50 (BT-20, cell line BT-20, read-out: cell panel IC50, BT-20) was 64 nM, the IC50 (BT-549, read-out: cell panel IC50, BT-549, cell line BT-549) was 245 nM and the IC50 (BXPC-3, cell line BxPC-3, read-out: cell panel IC50, BxPC-3) was 28 nM. It also gave an IC50 (C-33-A, cell line C-33 A, read-out: cell panel IC50, C-33 A) of 14 nM, an IC50 (CAL-27, cell line CAL 27, read-out: cell panel IC50, CAL 27) of 6 nM and an IC50 (CCRF-CEM, cell line CCRF-CEM, read-out: cell panel IC50, CCRF-CEM) of 10 nM. For the same molecule, the IC50 (DLD-1, cell line DLD-1, read-out: cell panel IC50, DLD-1) was 19 nM, the IC50 (FaDu, cell line FaDu, read-out: cell panel IC50, FaDu) was 21 nM and the IC50 (HCT-15, cell line HCT-15, read-out: cell panel IC50, HCT-15) was 31 nM. The IC50 (HCT-116, read-out: cell panel IC50, HCT-116, cell line HCT-116) was 221 nM, the IC50 (Hs-578T, cell line Hs 578T, read-out: cell panel IC50, Hs 578T) was 5.28 nM and the IC50 (Jurkat E6.1, cell line Jurkat E6.1, read-out: cell panel IC50, Jurkat E6.1) was 18 nM. It also gave an IC50 (K562, read-out: cell panel IC50, K-562, cell line K-562) of 16 nM, an IC50 (LS174T, read-out: cell panel IC50, LS 174T, cell line LS 174T) of 10 nM and an IC50 (LoVo, cell line LoVo, read-out: cell panel IC50, LoVo) of 6 nM. For the same molecule, the IC50 (MG-63, cell line MG-63, read-out: cell panel IC50, MG-63) was 5.68 nM, the IC50 (MOLT-4, cell line MOLT-4, read-out: cell panel IC50, MOLT-4) was 8 nM and the IC50 (MeWo, cell line MeWo, read-out: cell panel IC50, MeWo) was 11 nM. It also gave an IC50 (NCI-H82, cell line NCI-H82, read-out: cell panel IC50, NCI-H82) of 28 nM, an IC50 (NCI-H460, cell line NCI-H460, read-out: cell panel IC50, NCI-H460) of 85 nM and an IC50 (OVCAR-3, cell line OVCAR-3, read-out: cell panel IC50, OVCAR-3) of 79 nM. The IC50 (RPMI-7951, cell line RPMI-7951, read-out: cell panel IC50, RPMI-7951) was 7 nM, the IC50 (SHP77, cell line SHP-77, read-out: cell panel IC50, SHP-77) was 66 nM and the IC50 (SK-N-AS, cell line SK-N-AS, read-out: cell panel IC50, SK-N-AS) was 6 nM. It also gave an IC50 (SW48, cell line SW48, read-out: cell panel IC50, SW48) of 10 nM, an IC50 (SW480, cell line SW480, read-out: cell panel IC50, SW480) of less than 3.16 nM and an IC50 (SW-620, cell line SW620, read-out: cell panel IC50, SW620) of 4 nM. It also gave an IC50 (U2OS, cell line U-2 OS, read-out: cell panel IC50, U-2 OS) of 53 nM, an IC50 (U-87 MG, 72 h, U-87 MG cell line, ATPlite, 72 hours, read-out: IC50 in cell proliferation assay (table S5 cellpanel data)) of 10 nM and an IC50 (cell line J82, read-out: cell panel IC50, J82) of 11 nM. The IC50 (cell line PA-1, read-out: cell panel IC50, PA-1) was 4.74 nM, the IC50 (cell line SJCRH30, read-out: cell panel IC50, SJCRH30) was 27 nM and the IC50 (cell line SR, read-out: cell panel IC50, SR) was 12 nM.
